Measurements: patent US10759794B2, “2-phenyl-3-(piperazinomethyl)imidazo[1,2-A]pyridine derivatives as blockers of task-1 and task-2 channels, for the treatment of sleep-related breathing disorders” (BAYER PHARMA AKTIENGESELLSCHAFT, priority 2015, dated 2020)

Assays:
human TASK-1 = human TASK-1 (Homo sapiens (Human), UniProt O14649); assay: Inhibition of recombinant TASK-1 in stably transfected CHO cells (voltage-sensitive dye, FLIPR); format: cell-based
Description: (§1) B-2. Inhibition of Recombinant TASK-1 and TASK-3 In Vitro
(§2) The investigations on the inhibition of the recombinant TASK-1 and TASK-3 channels were carried out using stably transfected CHO cells. Here, the compounds according to the invention were tested with administration of 40 mM of potassium chloride in the presence of a voltage-sensitive dye using the method described in detail in the following references [Whiteaker et al., Validation of FLIPR membrane potential dye for high-throughput screening of potassium channel modulators, J. Biomol. Screen. 6 (5), 305-312 (2001); Molecular Devices FLIPR Application Note: Measuring membrane potential using the FLIPR® membrane potential assay kit on Fluorometric Imaging Plate Reader (FLIPR®) systems, http://www.moleculardevices.com/reagents-supplies/assay-kits/ion-channels/flipr-membrane-potential-assay-kits]. The activity of the test substances was determined as their ability to inhibit a depolarization induced in the recombinant cells by 40 mM potassium chloride. The concentration which can block half of this depolarization is referred to as IC50.

human TASK-3 = human TASK-3 (Homo sapiens (Human), UniProt Q9NPC2); assay: Inhibition of recombinant TASK-3 in stably transfected CHO cells (voltage-sensitive dye, FLIPR); format: cell-based
Description: as §1, §2

[1] = depolarization induced by 40 mM potassium chloride, Table 2A
[2] = 40 mM potassium chloride, comparative compounds, Table 2B

human TASK-3, sequence (Q9NPC2 whole entry): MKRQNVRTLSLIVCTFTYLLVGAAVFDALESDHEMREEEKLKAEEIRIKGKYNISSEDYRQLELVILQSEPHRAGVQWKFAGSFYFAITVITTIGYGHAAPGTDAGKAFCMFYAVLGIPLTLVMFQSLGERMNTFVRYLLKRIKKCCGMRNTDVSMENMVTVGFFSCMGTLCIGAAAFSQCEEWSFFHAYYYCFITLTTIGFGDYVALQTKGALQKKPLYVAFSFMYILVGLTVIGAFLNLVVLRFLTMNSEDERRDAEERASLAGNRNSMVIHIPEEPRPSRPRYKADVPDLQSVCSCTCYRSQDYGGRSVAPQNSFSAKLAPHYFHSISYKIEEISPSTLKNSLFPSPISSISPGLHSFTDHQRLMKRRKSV
human TASK-1, sequence (O14649 whole entry): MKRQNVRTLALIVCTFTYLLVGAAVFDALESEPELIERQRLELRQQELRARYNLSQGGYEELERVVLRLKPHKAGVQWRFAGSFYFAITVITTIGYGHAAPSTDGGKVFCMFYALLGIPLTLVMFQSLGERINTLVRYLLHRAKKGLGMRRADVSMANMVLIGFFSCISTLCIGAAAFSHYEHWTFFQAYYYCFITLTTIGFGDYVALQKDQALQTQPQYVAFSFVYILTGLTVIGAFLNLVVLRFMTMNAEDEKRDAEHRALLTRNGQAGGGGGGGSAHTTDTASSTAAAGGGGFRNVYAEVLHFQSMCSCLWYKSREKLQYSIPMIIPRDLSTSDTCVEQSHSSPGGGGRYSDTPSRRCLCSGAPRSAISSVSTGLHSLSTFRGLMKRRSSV

SMILES: COc1ccc(C)c(C(=O)N2CCN(Cc3c(-c4ccc(C(C)(C)C)cc4)nc4ccccn34)CC2)n1 [Example 73]
- IC50 (human TASK-1; [1]): 170 nM
- IC50 (human TASK-3; [1]): 17 nM

SMILES: Cc1ccc(-c2nc3ccccn3c2CN2CCN(C(=O)C3CCCC3)CC2)cc1 [Example 56]
- IC50 (human TASK-1; [1]): 642 nM
- IC50 (human TASK-3; [1]): 700 nM

SMILES: COc1ccc(F)cc1C(=O)N1CCN(Cc2c(-c3ccc(Cl)cc3)nc3ccccn23)CC1 [Example 21]
- IC50 (human TASK-1; [1]): 454 nM
- IC50 (human TASK-3; [1]): 150 nM

SMILES: COc1ccc(C)c(C(=O)N2CCN(Cc3c(-c4ccc(C#N)cc4)nc4ccccn34)CC2)n1 [Example 71]
- IC50 (human TASK-1; [1]): 230 nM
- IC50 (human TASK-3; [1]): 16 nM

SMILES: COc1cccc(C(=O)N2CCN(Cc3c(-c4ccc(C)cc4)nc4ccccn34)CC2)n1 [Example 59]
- IC50 (human TASK-1; [1]): 800 nM
- IC50 (human TASK-3; [1]): 430 nM

SMILES: COc1ccc(F)cc1C(=O)N1CCN(Cc2c(-c3ccc(Br)cc3)nc3ccccn23)CC1 [Example 13]
- IC50 (human TASK-1; [1]): 672 nM
- IC50 (human TASK-3; [1]): 350 nM

SMILES: COc1cccc(C(=O)N2CCN(Cc3c(-c4ccc(Cl)cc4)nc4ccccn34)CC2)c1 [Example 19]
- IC50 (human TASK-1; [1]): 515 nM
- IC50 (human TASK-3; [1]): 300 nM

SMILES: CC(C)c1cccc(C(=O)N2CCN(Cc3c(-c4ccc(Cl)cc4)nc4ccccn34)CC2)c1 [Example 33]
- IC50 (human TASK-1; [1]): 2500 nM
- IC50 (human TASK-3; [1]): 2000 nM

SMILES: Cc1ccc(F)cc1C(=O)N1CCN(Cc2c(-c3ccc(Cl)cc3)nc3ccccn23)CC1 [Example 23]
- IC50 (human TASK-1; [1]): 685 nM
- IC50 (human TASK-3; [1]): 160 nM

SMILES: CCOc1cccc(C(=O)N2CCN(Cc3c(-c4ccc(Cl)cc4)nc4ccccn34)CC2)n1 [Example 45]
- IC50 (human TASK-1; [1]): 2000 nM
- IC50 (human TASK-3; [1]): 63 nM

SMILES: COc1ccc(F)c(C(=O)N2CCN(Cc3c(-c4ccc(Cl)cc4)nc4ccccn34)CC2)c1 [Example 27]
- IC50 (human TASK-1; [1]): 590 nM
- IC50 (human TASK-3; [1]): 120 nM

SMILES: COc1ccc(Br)c(C(=O)N2CCN(Cc3c(-c4ccc(Cl)cc4)nc4ccccn34)CC2)n1 [Example 42]
- IC50 (human TASK-1; [1]): 310 nM
- IC50 (human TASK-3; [1]): 13 nM

SMILES: COc1ccccc1C(=O)N1CCN(Cc2c(-c3ccc(C)cc3)nc3ccccn23)CC1 [Example 58]
- IC50 (human TASK-1; [1]): 1910 nM
- IC50 (human TASK-3; [1]): 1900 nM

SMILES: O=C(c1cc(F)ccc1Cl)N1CCN(Cc2c(-c3ccc(F)cc3)nc3ccccn23)CC1 [Example 51]
- IC50 (human TASK-1; [1]): 1890 nM
- IC50 (human TASK-3; [1]): 1000 nM

SMILES: COc1ccccc1C(=O)N1CCN(Cc2c(-c3ccc(Br)cc3)nc3ccccn23)CC1 [Example 12]
- IC50 (human TASK-1; [1]): 409 nM
- IC50 (human TASK-3; [1]): 71 nM

SMILES: O=C(c1ccccc1F)N1CCN(Cc2c(-c3ccc(Cl)cc3)nc3ccccn23)CC1 [Example 7, (4-{[2-(4-Chlorophenyl)imidazo [1,2-a]pyridin-3-yl]methyl}piperazin-1-yl)(2-fluorophenyl)methanone]
- IC50 (human TASK-1; [1]): 350 nM
- IC50 (human TASK-3; [1]): 98 nM

SMILES: COc1ccccc1C(=O)N1CCN(Cc2c(-c3ccc(F)cc3)nc3ccccn23)CC1 [Example 52]
- IC50 (human TASK-1; [1]): 1160 nM
- IC50 (human TASK-3; [1]): 560 nM

SMILES: O=C(C1CCCO1)N1CCN(Cc2c(-c3ccc(Cl)cc3)nc3ccccn23)CC1 (stereo not shown) [Example 35]
- IC50 (human TASK-1; [1]): 1250 nM
- IC50 (human TASK-3; [1]): 790 nM

SMILES: O=C(c1cccc(Cl)c1)N1CCN(Cc2c(-c3ccc(Cl)cc3)nc3ccccn23)CC1 [Example 36]
- IC50 (human TASK-1; [1]): 520 nM
- IC50 (human TASK-3; [1]): 190 nM

SMILES: O=C(C1CCCCC1)N1CCN(Cc2c(-c3ccc(Br)cc3)nc3ccccn23)CC1 [Example 9]
- IC50 (human TASK-1; [1]): 232 nM
- IC50 (human TASK-3; [1]): 200 nM

SMILES: O=C(c1cccc(OC2CCC2)n1)N1CCN(Cc2c(-c3ccc(Cl)cc3)nc3ccccn23)CC1 [Example 41]
- IC50 (human TASK-1; [1]): 1300 nM
- IC50 (human TASK-3; [1]): 190 nM

SMILES: O=C(c1ccccn1)N1CCN(Cc2c(-c3ccc(Cl)cc3)nc3ccccn23)CC1 [Example 26]
- IC50 (human TASK-1; [1]): 708 nM
- IC50 (human TASK-3; [1]): 590 nM

SMILES: O=C(c1cccc(C(F)(F)F)c1)N1CCN(Cc2c(-c3ccc(Cl)cc3)nc3ccccn23)CC1 [Example 25]
- IC50 (human TASK-1; [1]): 1900 nM
- IC50 (human TASK-3; [1]): 820 nM

SMILES: O=C(c1cccc(F)c1)N1CCN(Cc2c(-c3ccc(Cl)cc3)nc3ccc(C4CC4)cn23)CC1 [WO 2014/187922 Example 178, reference compound]
- IC50 (human TASK-1; [2]): 30000 nM
- IC50 (human TASK-3; [2]): 4800 nM

SMILES: O=C(c1cccc(OC(F)F)n1)N1CCN(Cc2c(-c3ccc(Cl)cc3)nc3ccccn23)CC1 [Example 44]
- IC50 (human TASK-1; [1]): 270 nM
- IC50 (human TASK-3; [1]): 17 nM

SMILES: CC(C)(C)c1ccc(-c2nc3ccccn3c2CN2CCN(C(=O)C3CCCC3)CC2)cc1 [Example 66]
- IC50 (human TASK-1; [1]): 1500 nM
- IC50 (human TASK-3; [1]): 830 nM

SMILES: CCOc1ccccc1C(=O)N1CCN(Cc2c(-c3ccc(Cl)cc3)nc3ccccn23)CC1 [Example 28]
- IC50 (human TASK-1; [1]): 510 nM
- IC50 (human TASK-3; [1]): 14 nM

SMILES: COc1cc(C)cc(C(=O)N2CCN(Cc3c(-c4ccc(Cl)cc4)nc4ccccn34)CC2)n1 [Example 40]
- IC50 (human TASK-1; [1]): 1000 nM
- IC50 (human TASK-3; [1]): 770 nM

SMILES: CC(C)c1ccccc1C(=O)N1CCN(Cc2c(-c3ccc(Cl)cc3)nc3ccccn23)CC1 [Example 34]
- IC50 (human TASK-1; [1]): 400 nM
- IC50 (human TASK-3; [1]): 63 nM

SMILES: O=C(C1CCC1)N1CCN(Cc2c(-c3ccc(F)cc3)nc3ccccn23)CC1 [Example 49]
- IC50 (human TASK-1; [1]): 1830 nM
- IC50 (human TASK-3; [1]): 1700 nM

SMILES: O=C(C1CCC1)N1CCN(Cc2c(-c3ccc(Cl)cc3)nc3ccccn23)CC1 [Example 18]
- IC50 (human TASK-1; [1]): 242 nM
- IC50 (human TASK-3; [1]): 120 nM

SMILES: CC(C)(C)c1ccc(-c2nc3ccccn3c2CN2CCN(C(=O)c3ccccc3F)CC2)cc1 [Example 65]
- IC50 (human TASK-1; [1]): 1100 nM
- IC50 (human TASK-3; [1]): 750 nM

SMILES: COc1ccc(C)c(C(=O)N2CCN(Cc3c(-c4ccc(Br)cc4)nc4ccccn34)CC2)n1 [Example 74]
- IC50 (human TASK-1; [1]): 67 nM
- IC50 (human TASK-3; [1]): 9.1 nM

SMILES: COc1ccc(F)cc1C(=O)N1CCN(Cc2c(-c3ccc(F)cc3)nc3ccccn23)CC1 [Example 50]
- IC50 (human TASK-1; [1]): 1620 nM
- IC50 (human TASK-3; [1]): 1400 nM

SMILES: CC(C)Oc1cccc(C(=O)N2CCN(Cc3c(-c4ccc(Cl)cc4)nc4ccccn34)CC2)c1 [Example 31]
- IC50 (human TASK-1; [1]): 2100 nM
- IC50 (human TASK-3; [1]): 1300 nM

SMILES: N#Cc1ccc(-c2nc3ccccn3c2CN2CCN(C(=O)c3ccccc3F)CC2)cc1 [Example 60]
- IC50 (human TASK-1; [1]): 1700 nM
- IC50 (human TASK-3; [1]): 4600 nM

SMILES: COc1ccc(Cl)c(C(=O)N2CCN(Cc3c(-c4ccc(Cl)cc4)nc4ccccn34)CC2)n1 [Example 43]
- IC50 (human TASK-1; [1]): 220 nM
- IC50 (human TASK-3; [1]): 10 nM

SMILES: O=C(c1cc(F)ccc1Cl)N1CCN(Cc2c(-c3ccc(Br)cc3)nc3ccccn23)CC1 [Example 6, (4-{[2-(4-Bromophenyl)imidazo[1,2-a]pyridin-3-yl]methyl}piperazin-1-yl)(2-chloro-5-fluorophenyl)methanone]
- IC50 (human TASK-1; [1]): 500 nM
- IC50 (human TASK-3; [1]): 360 nM

SMILES: O=C(c1cc(F)ccc1Cl)N1CCN(Cc2c(-c3ccc(Cl)cc3)nc3ccccn23)CC1 [Example 16]
- IC50 (human TASK-1; [1]): 304 nM
- IC50 (human TASK-3; [1]): 110 nM

SMILES: O=C(C1CCCCC1)N1CCN(Cc2c(-c3ccc(F)cc3)nc3ccccn23)CC1 [Example 8, (4-{[2-(4-Fluorophenyl)imidazo[1,2-a]pyridin-3-yl]methyl}piperazin-1-yl)(cyclohexyl)methanone]
- IC50 (human TASK-1; [1]): 893 nM
- IC50 (human TASK-3; [1]): 2500 nM

SMILES: O=C(c1ccccc1F)N1CCN(Cc2c(-c3ccc(C4CC4)cc3)nc3ccccn23)CC1 [Example 69, (4-{[2-(4-Cyclopropylphenyl)imidazo[1,2-a]pyridin-3-yl]methyl}piperazin-1-yl)(2-fluorophenyl)methanone]
- IC50 (human TASK-1; [1]): 66 nM
- IC50 (human TASK-3; [1]): 11 nM

SMILES: Cc1ccccc1C(=O)N1CCN(Cc2c(-c3ccc(Cl)cc3)nc3ccccn23)CC1 [Example 22]
- IC50 (human TASK-1; [1]): 387 nM
- IC50 (human TASK-3; [1]): 140 nM

SMILES: N#Cc1ccccc1C(=O)N1CCN(Cc2c(-c3ccc(Cl)cc3)nc3ccccn23)CC1 [Example 32]
- IC50 (human TASK-1; [1]): 430 nM
- IC50 (human TASK-3; [1]): 130 nM

SMILES: O=C(c1cccc(OC2CCOCC2)n1)N1CCN(Cc2c(-c3ccc(Cl)cc3)nc3ccccn23)CC1 [Example 46]
- IC50 (human TASK-1; [1]): 1200 nM
- IC50 (human TASK-3; [1]): 240 nM

SMILES: COc1ccc(F)c(C(=O)N2CCN(Cc3c(-c4ccc(C#N)cc4)nc4ccccn34)CC2)c1 [Example 70]
- IC50 (human TASK-1; [1]): 1800 nM
- IC50 (human TASK-3; [1]): 350 nM

SMILES: O=C(c1cccc(OC(F)(F)F)n1)N1CCN(Cc2c(-c3ccc(Cl)cc3)nc3ccccn23)CC1 [Example 67, (4-{[2-(4-Chlorophenyl)imidazo [1,2-a]pyridin-3-yl]methyl}piperazin-1-yl) [6-(trifluoromethoxy)pyridin-2-yl]methanone]
- IC50 (human TASK-1; [1]): 42 nM
- IC50 (human TASK-3; [1]): 9.4 nM

SMILES: O=C(c1cnccn1)N1CCN(Cc2c(-c3ccc(Cl)cc3)nc3ccc(C4CC4)cn23)CC1 [WO 2014/187922 Example 263, reference compound]
- IC50 (human TASK-1; [2]): 30000 nM
- IC50 (human TASK-3; [2]): 5700 nM
